Measured values published in ChEMBL document CHEMBL3351616, “Synthesis and evaluation of novel benzophenone-thiazole derivatives as potent VEGF-A inhibitors” (Eur J Med Chem, 2014).
Active and inactive are the calls of the source. No cut-off for these calls is given here.

Key:
[1] = Cytotoxicity against mouse DLA cells after 48 hrs by MTT method; assay type: functional, cell-based
[2] = Cytotoxicity against mouse DLA cells after 48 hrs by trypan blue dye exclusion method; assay type: functional, cell-based
[3] = Cytotoxicity against mouse EAC cells after 48 hrs by MTT method; assay type: functional, cell-based; settings: Ehrlich
[4] = Cytotoxicity against mouse DLA cells after 48 hrs by LDH release assay; assay type: functional, cell-based
[5] = Cytotoxicity against mouse EAC cells after 48 hrs by LDH release assay; assay type: functional, cell-based; settings: Ehrlich
[6] = Cytotoxicity against mouse EAC cells after 48 hrs by trypan blue dye exclusion method; assay type: functional, cell-based; settings: Ehrlich
Ehrlich [7] = assay: Antitumor activity against mouse EAC cells allografted in mouse assessed as reduction in VEGF-A mRNA expression in tumor cells at 50 mg/kg, ip as 3 doses on day 4,6 and 8 after tumor onset by RT-PCR analysis; assay type: functional, organism-based; set-up: dose 50 mg/kg
Ehrlich [8] = assay: Antitumor activity against mouse EAC cells allografted in mouse assessed as zone of avascularization in peritoneum at 50 mg/kg, ip as 3 doses on day 4,6 and 8 after tumor onset measured on day 10; assay type: functional, organism-based; set-up: dose 50 mg/kg
Mus musculus [9] = assay: Toxicity in Swiss albino mouse assessed as change in WBC at 50 mg/kg, ip consecutively for 10 days (reference value: […]); assay type: organism-based; set-up: dose 50 mg/kg, route intraperitoneal; settings: in vivo, 240 h
Mus musculus [10] = assay: Toxicity in Swiss albino mouse assessed as change in alkaline phosphatase level at 50 mg/kg, ip consecutively for 10 days (reference value: 124.98 +/- 1.2 IU/L); assay type: organism-based; set-up: dose 50 mg/kg, route intraperitoneal; settings: in vivo, 240 h
[11] = Antitumor activity against mouse EAC cells allografted in mouse assessed as reduction in VEGF-A protein secretion in tumor cells at 50 mg/kg, ip as 3 doses on day 4,6 and 8 after tumor onset by ELISA relative to control; assay type: functional, Ehrlich; settings: route intraperitoneal
Mus musculus [12] = assay: Toxicity in Swiss albino mouse assessed as change in RBC at 50 mg/kg, ip consecutively for 10 days (reference value: 4.75 +/- 2.1 x 10^6 /uL); assay type: organism-based; set-up: dose 50 mg/kg, route intraperitoneal; settings: in vivo, 240 h
Mus musculus [13] = assay: Toxicity in Swiss albino mouse assessed as change in urea level at 50 mg/kg, ip consecutively for 10 days (reference value: 51 +/- 2.6 mg/dl); assay type: organism-based; set-up: dose 50 mg/kg, route intraperitoneal; settings: in vivo, 240 h
[14] = Antitumor activity against mouse EAC cells allografted in mouse assessed as increase in lifespan at 50 mg/kg, ip as 3 doses on day 4,6 and 8 after tumor onset measured on day 10 (reference value: 10 days); assay type: functional, Ehrlich; settings: route intraperitoneal
Ehrlich [15] = assay: Antitumor activity against mouse EAC cells allografted in mouse assessed as decrease in reduction in cell count at 50 mg/kg, ip as 3 doses on day 4,6 and 8 after tumor onset measured on day 10; assay type: functional, organism-based; set-up: dose 50 mg/kg
Ehrlich [16] = assay: Antitumor activity against mouse EAC cells allografted in mouse assessed as reduction in VEGF-A protein expression in tumor cells at 50 mg/kg, ip as 3 doses on day 4,6 and 8 after tumor onset by immunoblot method relative to control; assay type: functional, organism-based; set-up: dose 50 mg/kg
Mus musculus [17] = assay: Toxicity in Swiss albino mouse assessed as change in creatinine level at 50 mg/kg, ip consecutively for 10 days (reference value: 0.46 +/- 1.8 mg/dl); assay type: organism-based; set-up: dose 50 mg/kg, route intraperitoneal; settings: in vivo, 240 h
Ehrlich [18] = assay: Reduction in VEGF-A protein secretion in culture media of mouse EAC cells by ELISA; assay type: functional, cell-based
Ehrlich [19] = assay: Antitumor activity against mouse EAC cells allografted in mouse assessed as decrease in ascites fluid secretion at 50 mg/kg, ip as 3 doses on day 4,6 and 8 after tumor onset measured on day 10; assay type: functional, organism-based; set-up: dose 50 mg/kg
Ehrlich [20] = assay: Antitumor activity against mouse EAC cells allografted in mouse assessed as decrease in reduction in tumor volume at 50 mg/kg, ip as 3 doses on day 4,6 and 8 after tumor onset measured on day 10; assay type: functional, organism-based; set-up: dose 50 mg/kg

SMILES | IC50 [1] [µM] | IC50 [2] [µM] | IC50 [3] [µM] | IC50 [4] [µM] | IC50 [5] [µM] | IC50 [6] [µM] | also measured
Cc1cc(C(=O)c2ccccc2C)ccc1OCC(=O)Nc1nc(-c2ccccc2)cs1 | 23.1 | 22.2 | 25.8 | 23.7 | 26.4 | 24.3 | 
COc1ccc(-c2csc(NC(=O)COc3c(C)cc(C(=O)c4ccccc4)cc3C)n2)cc1 | 39.4 | 38.4 | 41.2 | 40.1 | 41.5 | 40.6 | 
Cc1ccc(C(=O)c2ccc(OCC(=O)Nc3nc(-c4ccccc4)cs3)c(C)c2)cc1 | 26.4 | 25 | 29.9 | 27.1 | 30.5 | 28.4 | 
O=c1[nH]cc(F)c(=O)[nH]1 [FLUOROURACIL] | 15.6 | 15.3 |  | 16.8 | 15.4 | 14.6 | 
COc1ccc(-c2csc(NC(=O)COc3ccc(C(=O)c4ccccc4)cc3C)n2)cc1 | 25.7 | 24.2 | 28.4 | 26.2 | 28.6 | 27.1 | 
Cc1cc(C(=O)c2ccccc2)ccc1OCC(=O)Nc1nc(-c2ccccc2)cs1 | 22.3 | 21.5 | 24 | 23 | 24.5 | 22.3 | 
Cc1cc(C(=O)c2ccccc2)cc(C)c1OCC(=O)Nc1nc(-c2ccccc2)cs1 | 19.4 | 19.1 | 22.7 | 19.9 | 23.4 | 22.1 | 
Cc1cc(C(=O)c2ccccc2F)ccc1OCC(=O)Nc1nc(-c2ccccc2)cs1 | 14.8 | 13.7 | 16.7 | 15.6 | 16.9 | 15.4 | 
COc1ccc(-c2csc(NC(=O)COc3ccc(C(=O)c4cccc(Br)c4)cc3C)n2)cc1 | 36.6 | 35.4 | 39.2 | 37.1 | 40.6 | 38.1 | 
Cc1cc(C(=O)c2cccc(Br)c2)ccc1OCC(=O)Nc1nc(-c2ccccc2)cs1 | 23.8 | 21.7 | 24.4 | 23.6 | 25.9 | 24.3 | 
Cc1cc(C(=O)c2ccc(F)cc2)ccc1OCC(=O)Nc1nc(-c2ccccc2)cs1 | 33.3 | 32.1 | 37.4 | 34.7 | 38.6 | 35.2 | 
COc1ccc(-c2csc(NC(=O)COc3ccc(C(=O)c4ccc(F)cc4)cc3C)n2)cc1 | 5.4 | 5 | 5.4 | 5.5 | 5.8 | 5.2 | Activity (Ehrlich [7]): Active; Activity (Ehrlich [8]): Active; Activity (Mus musculus [9]): 3.89 ×10⁶ /uL; Activity (Mus musculus [10]): 129 IU/L; fold change (FC) [11]: 5; Activity (Mus musculus [12]): 5.13 ×10⁶ /uL; Activity (Mus musculus [13]): 48 mg/dL; Survival [14]: 34 days; Activity (Ehrlich [15]): Dose-dependent effect; Activity (Ehrlich [16]): Active; Activity (Mus musculus [17]): 0.44 mg/dL; Activity (Ehrlich [18]): Dose-dependent effect; Activity (Ehrlich [19]): Dose-dependent effect; Activity (Ehrlich [20]): Dose-dependent effect
COc1ccc(-c2csc(NC(=O)COc3ccc(C(=O)c4cccc(F)c4)cc3C)n2)cc1 | 28.4 | 27.8 | 30.7 | 30.3 | 30.9 | 29.5 | 
O=C(COc1ccc(C(=O)c2ccccc2)cc1Br)Nc1nc(-c2ccccc2)cs1 | 43.1 | 42 | 46 | 43.5 | 46.4 | 45.8 | 
COc1ccc(-c2csc(NC(=O)COc3ccc(C(=O)c4ccc(C)cc4)cc3C)n2)cc1 | 17.2 | 16 | 20.7 | 18.7 | 20.9 | 19.4 | 
